In patent US11840686B2, “Modulation of prekallikrein (PKK) expression” (Ionis Pharmaceuticals, Inc., priority 2013, dated 2023):
Strand notation (5' to 3'): a small letter for the sugar, then the base; units joined by * are phosphorothioate-linked, units joined directly phosphodiester-linked; [ ] holds rarer units or linkages, { } end groups; capitals alone tell only the bases. e = 2'-O-(2-methoxyethyl) (MOE); [5mC] = 5-methylcytosine; d = 2'-deoxy (DNA)

System: human PKK mRNA
Test: Antisense inhibition of human PKK mRNA in HepaRG cells, 5,000 nM (Example 2)
Assay type: cell-based
Details: Table 13; human PKK mRNA in HepaRG cells; 5-10-5 gapmers
Procedure, shortened: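 Chimeric MOE gapmers with full phosphorothioate backbones were tested once at 5,000 nM in electroporated HepaRG cells. After about 24 hours, quantitative PCR measured PKK mRNA relative to untreated control cells.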

Substance	% inhibition [%]
546811 (eT*eG*eG*eA*e[5mC]*dA*dT*d[5mC]*d[5mC]*dT*dT*d[5mC]*d[5mC]*d[5mC]*d[5mC]*eT*e[5mC]*eG*e[5mC]*eA; antisense) [compound 546811]	49
546817 (eG*e[5mC]*eT*e[5mC]*eT*dG*dA*dG*d[5mC]*d[5mC]*dT*dT*d[5mC]*d[5mC]*dG*e[5mC]*e[5mC]*eT*e[5mC]*eT; antisense) [compound 546817]	77
546822 (eA*e[5mC]*eT*eA*eG*dT*dT*dT*d[5mC]*d[5mC]*dT*dA*dT*dA*dA*e[5mC]*eT*eG*e[5mC]*eT; antisense) [compound 546822]	32
546823 (eT*eA*e[5mC]*eT*eA*dG*dT*dT*dT*d[5mC]*d[5mC]*dT*dA*dT*dA*eA*e[5mC]*eT*eG*e[5mC]; antisense) [compound 546823]	44
546824 (eG*eT*eA*e[5mC]*eT*dA*dG*dT*dT*dT*d[5mC]*d[5mC]*dT*dA*dT*eA*eA*e[5mC]*eT*eG; antisense) [compound 546824]	79
546830 (eT*eA*eA*e[5mC]*eA*dG*dT*dA*dT*d[5mC]*dA*d[5mC]*dT*dG*dT*eA*e[5mC]*eT*eA*eG; antisense) [compound 546830]	78
546831 (eT*e[5mC]*eT*eA*eA*d[5mC]*dA*dG*dT*dA*dT*d[5mC]*dA*d[5mC]*dT*eG*eT*eA*e[5mC]*eT; antisense) [compound 546831]	79
546836 (eA*eT*eA*eA*e[5mC]*dT*d[5mC]*dT*dA*dA*d[5mC]*dA*dG*dT*dA*eT*e[5mC]*eA*e[5mC]*eT; antisense) [compound 546836]	30
546837 (eT*eA*eT*eA*eA*d[5mC]*dT*d[5mC]*dT*dA*dA*d[5mC]*dA*dG*dT*eA*eT*e[5mC]*eA*e[5mC]; antisense) [compound 546837]	0
546838 (e[5mC]*eT*eA*eT*eA*dA*d[5mC]*dT*d[5mC]*dT*dA*dA*d[5mC]*dA*dG*eT*eA*eT*e[5mC]*eA; antisense) [compound 546838]	43
546839 (e[5mC]*e[5mC]*eT*eA*eT*dA*dA*d[5mC]*dT*d[5mC]*dT*dA*dA*d[5mC]*dA*eG*eT*eA*eT*e[5mC]; antisense) [compound 546839]	47
546840 (e[5mC]*eT*eG*eT*e[5mC]*d[5mC]*dT*dA*dT*dA*dA*d[5mC]*dT*d[5mC]*dT*eA*eA*e[5mC]*eA*eG; antisense) [compound 546840]	53
546841 (e[5mC]*eA*e[5mC]*eT*eG*dT*d[5mC]*d[5mC]*dT*dA*dT*dA*dA*d[5mC]*dT*e[5mC]*eT*eA*eA*e[5mC]; antisense) [compound 546841]	38
546842 (eT*e[5mC]*eA*e[5mC]*eT*dG*dT*d[5mC]*d[5mC]*dT*dA*dT*dA*dA*d[5mC]*eT*e[5mC]*eT*eA*eA; antisense) [compound 546842]	54
546843 (eT*eA*eT*e[5mC]*eA*d[5mC]*dT*dG*dT*d[5mC]*d[5mC]*dT*dA*dT*dA*eA*e[5mC]*eT*e[5mC]*eT; antisense) [compound 546843]	52
546844 (eG*eT*e[5mC]*e[5mC]*eT*dA*dT*dA*dT*d[5mC]*dA*d[5mC]*dT*dG*dT*e[5mC]*e[5mC]*eT*eA*eT; antisense) [compound 546844]	75
546845 (eT*eG*eT*e[5mC]*e[5mC]*dT*dA*dT*dA*dT*d[5mC]*dA*d[5mC]*dT*dG*eT*e[5mC]*e[5mC]*eT*eA; antisense) [compound 546845]	75

Same assay, conditions: human PKK mRNA in HepaRG cells; 5-10-5 gapmers; Table 14

Substance	% inhibition [%]
546850 (eT*eA*eT*e[5mC]*eA*d[5mC]*dT*dG*dT*d[5mC]*d[5mC]*dT*dA*dT*dA*eT*e[5mC]*eA*e[5mC]*eT; antisense) [compound 546850]	80
546851 (eA*eG*eT*eA*eT*d[5mC]*dA*d[5mC]*dT*dG*dT*d[5mC]*d[5mC]*dT*dA*eT*eA*eT*e[5mC]*eA; antisense) [compound 546851]	81
546856 (eA*eA*e[5mC]*eT*eA*dT*dA*dA*d[5mC]*dA*dG*dT*dA*dT*d[5mC]*eA*e[5mC]*eT*eG*eT; antisense) [compound 546856]	54
546857 (eT*eA*eT*eA*eA*d[5mC]*dT*dA*dT*dA*dA*d[5mC]*dA*dG*dT*eA*eT*e[5mC]*eA*e[5mC]; antisense) [compound 546857]	7
546858 (e[5mC]*eT*eA*eT*eA*dA*d[5mC]*dT*dA*dT*dA*dA*d[5mC]*dA*dG*eT*eA*eT*e[5mC]*eA; antisense) [compound 546858]	21
546859 (eT*eT*eT*e[5mC]*e[5mC]*dT*dA*dT*dA*dA*d[5mC]*dT*dA*dT*dA*eA*e[5mC]*eA*eG*eT; antisense) [compound 546859]	7
546860 (e[5mC]*eT*eA*eG*eT*dT*dT*d[5mC]*d[5mC]*dT*dA*dT*dA*dA*d[5mC]*eT*eA*eT*eA*eA; antisense) [compound 546860]	36
546861 (eT*eA*eA*e[5mC]*eA*dA*dT*dA*dT*d[5mC]*dA*d[5mC]*dT*dG*dT*e[5mC]*e[5mC]*eT*eA*eT; antisense) [compound 546861]	68
546862 (eA*eA*e[5mC]*eT*eA*dT*dA*dA*d[5mC]*dA*dA*dT*dA*dT*d[5mC]*eA*e[5mC]*eT*eG*eT; antisense) [compound 546862]	0
546863 (eT*eA*eA*e[5mC]*eT*dA*dT*dA*dA*d[5mC]*dA*dA*dT*dA*dT*e[5mC]*eA*e[5mC]*eT*eG; antisense) [compound 546863]	21
546864 (eA*eT*eA*eA*e[5mC]*dT*dA*dT*dA*dA*d[5mC]*dA*dA*dT*dA*eT*e[5mC]*eA*e[5mC]*eT; antisense) [compound 546864]	0
546865 (eT*eA*eT*eA*eA*d[5mC]*dT*dA*dT*dA*dA*d[5mC]*dA*dA*dT*eA*eT*e[5mC]*eA*e[5mC]; antisense) [compound 546865]	0
546866 (eG*eT*eT*eT*e[5mC]*d[5mC]*dT*dA*dT*dA*dA*d[5mC]*dT*dA*dT*eA*eA*e[5mC]*eA*eA; antisense) [compound 546866]	35
546867 (eA*e[5mC]*e[5mC]*eT*eA*dT*dA*dA*d[5mC]*dT*d[5mC]*dT*dA*dA*d[5mC]*eA*eG*eT*eA*eT; antisense) [compound 546867]	40
546868 (eT*eA*e[5mC]*e[5mC]*eT*dA*dT*dA*dA*d[5mC]*dT*d[5mC]*dT*dA*dA*e[5mC]*eA*eG*eT*eA; antisense) [compound 546868]	51
546869 (eT*eG*eT*eA*e[5mC]*d[5mC]*dT*dA*dT*dA*dA*d[5mC]*dT*d[5mC]*dT*eA*eA*e[5mC]*eA*eG; antisense) [compound 546869]	53
546871 (eA*e[5mC]*eT*eG*eT*dA*d[5mC]*d[5mC]*dT*dA*dT*dA*dA*d[5mC]*dT*e[5mC]*eT*eA*eA*e[5mC]; antisense) [compound 546871]	73
546873 (e[5mC]*eA*eA*eT*eA*dT*d[5mC]*dA*d[5mC]*dT*dG*dT*dA*d[5mC]*d[5mC]*eT*eA*eT*eA*eA; antisense) [compound 546873]	34
546874 (eA*eT*eA*eA*e[5mC]*dA*dA*dT*dA*dT*d[5mC]*dA*d[5mC]*dT*dG*eT*eA*e[5mC]*e[5mC]*eT; antisense) [compound 546874]	68
546875 (eA*e[5mC]*eT*eA*eT*dA*dA*d[5mC]*dA*dA*dT*dA*dT*d[5mC]*dA*e[5mC]*eT*eG*eT*eA; antisense) [compound 546875]	33
546878 (e[5mC]*e[5mC]*eT*eA*eT*dA*dA*d[5mC]*dA*dG*dT*dA*dT*d[5mC]*dA*e[5mC]*eT*eG*eT*e[5mC]; antisense) [compound 546878]	81
546879 (eT*eT*eT*e[5mC]*e[5mC]*dT*dA*dT*dA*dA*d[5mC]*dA*dG*dT*dA*eT*e[5mC]*eA*e[5mC]*eT; antisense) [compound 546879]	42
546880 (eG*eT*eT*eT*e[5mC]*d[5mC]*dT*dA*dT*dA*dA*d[5mC]*dA*dG*dT*eA*eT*e[5mC]*eA*e[5mC]; antisense) [compound 546880]	41
546881 (eA*eG*eT*eT*eT*d[5mC]*d[5mC]*dT*dA*dT*dA*dA*d[5mC]*dA*dG*eT*eA*eT*e[5mC]*eA; antisense) [compound 546881]	49
546882 (eT*eA*eG*eT*eT*dT*d[5mC]*d[5mC]*dT*dA*dT*dA*dA*d[5mC]*dA*eG*eT*eA*eT*e[5mC]; antisense) [compound 546882]	24
546883 (e[5mC]*eT*eA*eG*eT*dT*dT*d[5mC]*d[5mC]*dT*dA*dT*dA*dA*d[5mC]*eA*eG*eT*eA*eT; antisense) [compound 546883]	19
546884 (eA*e[5mC]*eT*eA*eG*dT*dT*dT*d[5mC]*d[5mC]*dT*dA*dT*dA*dA*e[5mC]*eA*eG*eT*eA; antisense) [compound 546884]	6

Same assay, conditions: human PKK mRNA, HepaRG cells; 5-10-5 motif oligonucleotides targeting SEQ ID NO: 1 and 10

Substance	% inhibition [%]
546885 (eT*eA*eT*eG*eT*d[5mC]*dA*d[5mC]*dT*dG*dT*dA*d[5mC]*d[5mC]*dT*eA*eT*eA*eA*e[5mC]; antisense) [compound 546885]	46
546886 (e[5mC]*eT*eA*eT*eG*dT*d[5mC]*dA*d[5mC]*dT*dG*dT*dA*d[5mC]*d[5mC]*eT*eA*eT*eA*eA; antisense) [compound 546886]	80
546887 (e[5mC]*e[5mC]*eT*eA*eT*dG*dT*d[5mC]*dA*d[5mC]*dT*dG*dT*dA*d[5mC]*e[5mC]*eT*eA*eT*eA; antisense) [compound 546887]	82
546888 (eT*e[5mC]*e[5mC]*eT*eA*dT*dG*dT*d[5mC]*dA*d[5mC]*dT*dG*dT*dA*e[5mC]*e[5mC]*eT*eA*eT; antisense) [compound 546888]	78
